# According to US20230085307A1, “PYRIDAZINONE COMPOUND AND HERBICIDE” (NISSAN CHEMICAL CORPORATION, priority 2019, published 2023):
# Columns and labels:
# [1] = tested on: Japanese bulrush; test: Test Example 1: herbicidal activity, application before weed generation under submerged conditions (Table 16, symbol B); type: in vivo, Japanese bulrush (Schoenoplectus juncoides); settings: amount of applied herbicide 320 g/ha
# Method in brief: (§1)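 Emulsion formulation, water-diluted to set dose, was put onto the flooded surface (4 cm depth, alluvial soil) the same day weeds were sown and 2.5-leaf rice transplanted. After 3 weeks at 25-30 °C under glass, each species was rated 0 (≤5% kill) to 5 (≥90% kill).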
# [2] = tested on: barnyard grass; test: Test Example 4: herbicidal effect by soil treatment (Table 19, symbol H); type: in vivo, barnyard grass (Echinochloa crus-galli); settings: amount of applied herbicide 320 g/ha
# Method in brief: (§2)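 Scoring uses the grading scale of an earlier test, three weeks post-application. Treatment consists of spraying a diluted emulsion formulation across the surface of sterilized diluvial soil in which seeds are buried near 1.5 cm deep; boxes are kept in a greenhouse between 25° C. and 30° C.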
# [3] = tested on: Italian ryegrass; test: Test Example 4: herbicidal effect by soil treatment (Table 19, symbol K); type: in vivo, Italian ryegrass (Lolium multiflorum); settings: amount of applied herbicide 320 g/ha
# Method in brief: as §2
# [4] = tested on: windgrass; test: Test Example 5: herbicidal effect by foliage application, plastic box (Table 20, symbol L); type: in vivo, windgrass (Apera spica-venti); settings: foliage application, 320 g/ha, three weeks after application
# Method in brief: (§3)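 Post-emergence foliar test in sterilized diluvial soil. Compound applied as water-diluted emulsion at a predetermined rate to 14-day-old plants; evaluation at three weeks.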
# [5] = tested on: persian speedwell; test: Test Example 4: herbicidal effect by soil treatment (Table 19, symbol R); type: in vivo, Persian speedwell (Veronica persica); settings: amount of applied herbicide 320 g/ha
# Method in brief: as §2
# [6] = tested on: windgrass; test: Test Example 4: herbicidal effect by soil treatment (Table 19, symbol L); type: in vivo, windgrass (Apera spica-venti); settings: amount of applied herbicide 320 g/ha
# Method in brief: as §2
# [7] = tested on: green foxtail; test: Test Example 5: herbicidal effect by foliage application, plastic box (Table 20, symbol G); type: in vivo, green foxtail (Setaria viridis); settings: foliage application, 320 g/ha, three weeks after application
# Method in brief: as §3
# [8] = tested on: lambsquarters; test: Test Example 4: herbicidal effect by soil treatment (Table 19, symbol O); type: in vivo, lambsquarters (Chenopodium album); settings: amount of applied herbicide 320 g/ha
# Method in brief: as §2
# [9] = tested on: velvetleaf; test: Test Example 4: herbicidal effect by soil treatment (Table 19, symbol M); type: in vivo, velvetleaf (Abutilon theophrasti); settings: amount of applied herbicide 320 g/ha
# Method in brief: as §2
# [10] = tested on: chickweed; test: Test Example 4: herbicidal effect by soil treatment (Table 19, symbol P); type: in vivo, common chickweed (Stellaria media); settings: amount of applied herbicide 320 g/ha
# Method in brief: as §2
# [11] = tested on: late watergrass; test: Test Example 2: herbicidal activity, application during weed generation under submerged conditions (Table 17, symbol A); type: in vivo, late watergrass (Echinochloa oryzicola); settings: AAH 320 g/ha; application during weed generation, submerged conditions
# Method in brief: (§4)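 Mixed weed seedlings in alluvial soil under a 4 cm water layer, greenhouse-grown at 25–30° C. Compound given as a diluted emulsion into the floodwater at the 1–2 leaf stage; response graded after three weeks.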
# [12] = tested on: late watergrass; test: Test Example 1: herbicidal activity, application before weed generation under submerged conditions (Table 16, symbol A); type: in vivo, late watergrass (Echinochloa oryzicola); settings: amount of applied herbicide 320 g/ha
# Method in brief: as §1
# [13] = tested on: barnyard grass; test: Test Example 3: herbicidal effect by foliage application, Wagner pot (Table 18, symbol H); type: in vivo, barnyard grass (Echinochloa crus-galli); settings: amount of applied herbicide 320 g/ha
# Method in brief: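 Plants were sown in alluvial soil held under 0.1–0.5 cm standing water and grown 14 days in a greenhouse at 25–30 °C. An emulsifiable formulation, water-diluted to the set dose, was then sprayed onto the foliage, and effects were scored three weeks later using previously defined criteria.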
# [14] = tested on: oval-leafed pondweed; test: Test Example 2: herbicidal activity, application during weed generation under submerged conditions (Table 17, symbol C); type: in vivo, oval-leafed pondweed (Monochoria vaginalis); settings: AAH 320 g/ha; application during weed generation, submerged conditions
# Method in brief: as §4
# [15] = tested on: persian speedwell; test: Test Example 5: herbicidal effect by foliage application, plastic box (Table 20, symbol R); type: in vivo, Persian speedwell (Veronica persica); settings: foliage application, 320 g/ha, three weeks after application
# Method in brief: as §3
Structure (SMILES),"Herbicidal effect, B: Japanese bulrush [1]","H: barnyard grass, herbicidal effect grade [2]","K: Italian ryegrass, herbicidal effect grade [3]",herbicidal effect on windgrass (L) [4],"R: persian speedwell, herbicidal effect grade [5]","L: windgrass, herbicidal effect grade [6]",herbicidal effect on green foxtail (G) [7],"O: lambsquarters, herbicidal effect grade [8]","M: velvetleaf, herbicidal effect grade [9]","P: chickweed, herbicidal effect grade [10]","herbicidal effect rating, A: late watergrass [11]","Herbicidal effect, A: late watergrass [12]","Herbicidal effect on H (barnyard grass), foliage application [13]","herbicidal effect rating, C: oval-leafed pondweed [14]",herbicidal effect on persian speedwell (R) [15]
"COCCOc1ccc(-c2oc3ccccc3c2-c2c(O)c(C)nn(C)c2=O)cc1 [Compound No. 8-007, 5-hydroxy-4-(2-(4-(2-methoxyethoxy)phenyl)benzofuran-3-yl)-2,6-dimethylpyridazin-3-(2H)-one]",5 (Herbicidal rate of 90% or more (almost completely withered)),5 (Herbicidal rate of 90% or more (almost completely withered)),4 (Herbicidal rate of 70% or more and less than 90%),0 (Herbicidal rate of 5% or less (almost no effect)),2 (Herbicidal rate of 20% or more and less than 40%),0 (Herbicidal rate of 5% or less (almost no effect)),5 (Herbicidal rate of 90% or more (almost completely withered)),4 (Herbicidal rate of 70% or more and less than 90%),3 (Herbicidal rate of 40% or more and less than 70%),0 (Herbicidal rate of 5% or less (almost no effect)),5 (Herbicidal rate of 90% or more (almost completely withered)),5 (Herbicidal rate of 90% or more (almost completely withered)),5 (Herbicidal rate of 90% or more (almost completely withered)),3 (Herbicidal rate of 40% or more and less than 70%),5 (Herbicidal rate of 90% or more (almost completely withered))
COc1ccccc1-c1sc2c(Br)c(OC)ccc2c1-c1c(O)c(C)nn(C)c1=O [7-002],3 (Herbicidal rate of 40% or more and less than 70%),2 (Herbicidal rate of 20% or more and less than 40%),0 (Herbicidal rate of 5% or less (almost no effect)),5 (Herbicidal rate of 90% or more (almost completely withered)),3 (Herbicidal rate of 40% or more and less than 70%),0 (Herbicidal rate of 5% or less (almost no effect)),5 (Herbicidal rate of 90% or more (almost completely withered)),4 (Herbicidal rate of 70% or more and less than 90%),1 (Herbicidal rate of 5% or more and less than 20%),3 (Herbicidal rate of 40% or more and less than 70%),3 (Herbicidal rate of 40% or more and less than 70%),3 (Herbicidal rate of 40% or more and less than 70%),5 (Herbicidal rate of 90% or more (almost completely withered)),2 (Herbicidal rate of 20% or more and less than 40%),5 (Herbicidal rate of 90% or more (almost completely withered))
